Non-standard residues stand in square brackets, D forms with d. Residues, ends and D or L forms follow the SMILES beside them. *: point of attachment. Dnp = O=[N+]([O-])c1ccc(*)c([N+](=O)[O-])c1
What was measured:
[1] = tested on: purified collagenase; assay: Rate of hydrolysis of DNP-peptide derivatives by purified collagenase (Example 15); type: biochemical, tadpole; settings: 5×10^-4 M peptide, purified collagenase 6.2 U/ml, 37° C., pH 7.5; average of three experiments; extraction with ethyl acetate (* compounds: ethyl acetate-n-butanol 1:0.15)
Method: (§1) Purified collagenase used in Examples was prepared from cultured media of tadpole skin explants as described in Biochem. Biophs. Acta, 263 564(1972), and non-specific peptidases were prepared by subjecting 5 ml of fresh adult human serum to chromatography on a calibrated Sephadex G-200 superfine gel column equilibrated with 0.05 M Tris-HCl buffer, pH 7.5, containing 0.15 M NaCl and 5 mM CaCl2, and gathering the effluent fractions corresponding to molecular weights of 100,000-180,000.
(§2) Various DNP-peptide derivatives were dissolved in 0.05 M Tris-HCl buffer, pH 7.5, containing 0.15 M NaCl, 5 mM CaCl2 and 0.02% bovine serum albumin to make a concentration of 5×10^-4 M. 0.1 ml Each of the peptide derivative solutions was mixed with an equal volume of purified collagenase (6.2 U/ml) or non-specific peptidases and incubated for various periods at 37° C. After stopping the enzyme reaction by adding 0.5 ml of 1 M HCl, the DNP-peptide fragments released were extracted by vigorous shaking with 1 ml of ethylacetate or ethyl acetate-n-butanol (1:0.15, V/V), and worked up as in Example 12.

[2] = tested on: non-specific peptidases; assay: Rate of hydrolysis of DNP-peptide derivatives by non-specific peptidases (Example 15); type: biochemical, human; settings: 5×10^-4 M peptide, 37° C., pH 7.5; average of three experiments; extraction with ethyl acetate (* compounds: ethyl acetate-n-butanol 1:0.15)
Method: as §1, §2

[3] = tested on: purified collagenase; assay: Time course of hydrolysis of substrate solutions by purified collagenase (Example 12); type: biochemical, tadpole; settings: for 00365 (absorbance of the organic layer at 365 nm): pH 7.5
Method: as §1
DNP-Pro-Gln-Gly-Ile-Ala-Gly-Gln-D-Arg-OH.CH3 COOH.H2 O (4.96 mg) was neutralized with 0.1N sodium hydroxide, and dissolved in 0.05M tris-HCl buffer, pH 7.5, containing 0.15 M NaCl and 5 m MCaCl2 to make 10 ml of the substrate solution (a) having a concentration of 5×10^-4 M. The substrate solution (b) was also prepared similarly by using DNP-Gln-Gly-Ile-Ala-Gly-Gln-D-Arg-OH.CH3 COOH.H2 O (4.48 mg).
0.9 ml Each of the substrate solutions was diluted with 0.88 ml of 0.05M tris-HCl buffer, pH 7.5, containing 0.15 M NaCl, and 5 m MCaCl2. The resulting solution was mixed with 0.02 ml of purified collagenase, and incubated. 0.2 ml Aliquots of the reaction mixture were taken out at 0, 10, 20, 40, 60 and 120 minutes, and mixed with 0.5 ml of 1M hydrochloric acid for stopping the enzyme reaction.
(§3) The DNP-peptide fragments released were extracted by vigorous shaking with 1 ml of ethyl acetate-n-butanol (1:0.15, V/V) followed by centrifugation at 3,000-5,000 rpm and room temperature for 10 minutes to separate two layers completely. The degree of hydrolysis was determined by measuring the absorbance of the organic layer at 365 nm.

[4] = tested on: collagenase in synovial fluids; assay: Hydrolysis of substrate solutions by synovial fluids from patients; collagenase activity (Example 14); type: biochemical, human; settings: for OD365/0.1 ml ohr: 0 hr; for OD365/0.1 ml 2hr: 2 hr at 37° C.; for OD365/0.1 ml increment: 2 hr minus 0 hr
Method: as §3
0.2 ml Each of the substrate (solutions(a) and (b) prepared in Example 12 was mixed with 0.1 ml of synovial fluids from patients with osteoarthritis and rheumatoid arthritis, and incubated for 2 hours at 37° C. After stopping the enzyme reaction by adding 0.5 ml of 1 M hydrochloric acid, the DNP-peptide fragments released were extracted by vigorous shaking with 2 ml of ethyl acetate-n-butanol (1:0.15, V/V), and worked up as in Example 12 to obtain the collagenase activities.

[5] = synovial fluid of case five, RA
[6] = synovial fluid of case four, OA
[7] = synovial fluid of case three, RA

For `CC[C@H](C)[C@H](NC(=O)CNC(=O)[C@H](CCC(N)=O)NC(=O)[C@@H]1CCCN1c1ccc([N+](=O)[O-])cc1[N+](=O)[O-])C(=O)N[C@@H](C)C(=O)NCC(=O)N[C@H](CCCNC(=N)N)C(=O)O` [Example 8, DNP-Pro-Gln-Gly-Ile-Ala-Gly-D-Arg-OH] (Dnp-PQGIAG[dR]-OH), the “Rate of hydrolysis by Collagenase” value [1] was 0.157 OD365/hr and the “Rate of hydrolysis by non-specific peptidases” value [2] was 0.021 OD365/hr.
`CC[C@H](C)[C@H](NC(=O)CNC(=O)[C@H](CC(C)C)NC(=O)[C@@H]1CCCN1c1ccc([N+](=O)[O-])cc1[N+](=O)[O-])C(=O)N[C@@H](C)C(=O)NCC(=O)N[C@@H](CCC(N)=O)C(=O)N[C@H](CCCNC(=N)N)C(=O)O` [Example 9, DNP-Pro-Leu-Gly-Ile-Ala-Gly-Gln-D-Arg-OH] (Dnp-PLGIAGQ[dR]-OH) was tested, and the “Rate of hydrolysis by Collagenase” value [1] was 0.276 OD365/hr and the “Rate of hydrolysis by non-specific peptidases” value [2] was 0 OD365/hr.
In the case of `CC[C@H](C)[C@H](NC(=O)CNC(=O)[C@H](CCC(N)=O)Nc1ccc([N+](=O)[O-])cc1[N+](=O)[O-])C(=O)N[C@@H](C)C(=O)NCC(=O)N[C@@H](CCC(N)=O)C(=O)N[C@H](CCCNC(=N)N)C(=O)O` [Example 10, DNP-Gln-Gly-Ile-Ala-Gly-Gln-D-Arg-OH], the “00365 (absorbance of the organic layer at 365 nm)” value ([3]; incubation time 0 min) is reported as 0.027, the “increment of 00365” value ([3]; incubation time 10 min) is reported as 0 and the “00365 (absorbance of the organic layer at 365 nm)” value ([3]; incubation time 10 min) is reported as 0.027. The “increment of 00365” value ([3]; incubation time 20 min) was 0, the “00365 (absorbance of the organic layer at 365 nm)” value ([3]; incubation time 20 min) was 0.027 and the “increment of 00365” value ([3]; incubation time 40 min) was 0.002. The “00365 (absorbance of the organic layer at 365 nm)” value ([3]; incubation time 40 min) was 0.030, the “increment of 00365” value ([3]; incubation time 60 min) was 0.002 and the “00365 (absorbance of the organic layer at 365 nm)” value ([3]; incubation time 60 min) was 0.029. The “increment of 00365” value ([3]; incubation time 120 min) was 0, the “00365 (absorbance of the organic layer at 365 nm)” value ([3]; incubation time 120 min) was 0.027 and the OD365/0.1 ml ohr [4, 5] was 0.045 OD365/0.1 ml. For the same molecule, the “OD365/0.1 ml 2hr” value [4, 5] was 0.045 OD365/0.1 ml, the OD365/0.1 ml increment [4, 5] was 0.000 OD365/0.1 ml and the OD365/0.1 ml ohr [4, 6] was 0.038 OD365/0.1 ml. The “OD365/0.1 ml 2hr” value [4, 6] was 0.040 OD365/0.1 ml, the OD365/0.1 ml increment [4, 6] was 0.002 OD365/0.1 ml and the OD365/0.1 ml ohr ([4]; synovial fluid of case one, RA) was 0.049 OD365/0.1 ml. The “OD365/0.1 ml 2hr” value ([4]; synovial fluid of case one, RA) was 0.046 OD365/0.1 ml, the OD365/0.1 ml increment ([4]; synovial fluid of case one, RA) was 0 OD365/0.1 ml and the OD365/0.1 ml ohr ([4]; synovial fluid of case six, OA) was 0.050 OD365/0.1 ml. For the same molecule, the “OD365/0.1 ml 2hr” value ([4]; synovial fluid of case six, OA) was 0.041 OD365/0.1 ml, the OD365/0.1 ml increment ([4]; synovial fluid of case six, OA) was 0 OD365/0.1 ml and the OD365/0.1 ml ohr [4, 7] was 0.050 OD365/0.1 ml. The “OD365/0.1 ml 2hr” value [4, 7] was 0.051 OD365/0.1 ml, the OD365/0.1 ml increment [4, 7] was 0.001 OD365/0.1 ml and the OD365/0.1 ml ohr ([4]; synovial fluid of case two, OA) was 0.035 OD365/0.1 ml. The “OD365/0.1 ml 2hr” value ([4]; synovial fluid of case two, OA) was 0.038 OD365/0.1 ml, the OD365/0.1 ml increment ([4]; synovial fluid of case two, OA) was 0.003 OD365/0.1 ml and the “Rate of hydrolysis by Collagenase” value [1] was 0 OD365/hr. For the same molecule, the “Rate of hydrolysis by non-specific peptidases” value [2] was 0 OD365/hr.
In the case of `CC[C@H](C)[C@H](NC(=O)CNC(=O)[C@H](C)Nc1ccc([N+](=O)[O-])cc1[N+](=O)[O-])C(=O)N[C@@H](C)C(=O)NCC(=O)N[C@@H](CCC(N)=O)C(=O)N[C@H](CCCNC(=N)N)C(=O)O` [Example 11, DNP-Ala-Gly-Ile-Ala-Gly-Gln-D-Arg-OH], the “Rate of hydrolysis by Collagenase” value [1] is reported as 0 OD365/hr and the “Rate of hydrolysis by non-specific peptidases” value [2] is reported as 0.016 OD365/hr.
